# Legend:
# [1] = target: Beta-2 adrenergic receptor (Homo sapiens) (UniProt P07550); conditions: Compound concentration 10.0 uM
# [2] = target: Serine/threonine-protein kinase 17A (Homo sapiens) (UniProt Q9UEE5); conditions: Compound concentration 1000.0 nM
# [3] = test system: Phosphatidylinositol 4,5-bisphosphate 3-kinase catalytic subunit alpha isoform (Homo sapiens), P42336 [E545A]; conditions: Compound concentration 1000.0 nM
# [4] = target: Dual specificity protein kinase TTK (Homo sapiens) (UniProt P33981); conditions: Compound concentration 1000.0 nM
# [5] = target: Glycogen synthase kinase-3 alpha (Homo sapiens) (UniProt P49840); conditions: Compound concentration 1000.0 nM
# [6] = target: Tyrosine-protein kinase BTK (Homo sapiens) (UniProt Q06187); conditions: Compound concentration 1000.0 nM
# [7] = target: Alpha-1B adrenergic receptor (Homo sapiens, UniProt P35368); experiment: GPCRScan assay: inhibition of Alpha1B; set-up: radioligand conc. used [nm] 0.3 – 1.0, parental cells stable HEK
# [8] = test system: Tyrosine-protein kinase ABL1 (Homo sapiens), P00519 [F317L]; conditions: Compound concentration 1000.0 nM
# [9] = target: Myosin light chain kinase 2, skeletal/cardiac muscle (Homo sapiens) (UniProt Q9H1R3); conditions: Compound concentration 1000.0 nM
# [10] = target: GABA-A receptor; anion channel (Rattus norvegicus) (UniProt O09028+P15431+P18506+P18508+P19969+P20236+P23574+P23576+P28471+P28473+P30191+P62813+P63079+P63138+Q91ZM7+Q9ES14); conditions: Compound concentration 10.0 uM
# [11] = target: Tyrosine-protein kinase SYK (Homo sapiens) (UniProt P43405); conditions: Compound concentration 1000.0 nM
# [12] = test system: Proto-oncogene tyrosine-protein kinase receptor Ret (Homo sapiens), P07949 [V804L]; conditions: Compound concentration 1000.0 nM
# [13] = target: Eukaryotic translation initiation factor 2-alpha kinase 1 (Homo sapiens) (UniProt Q9BQI3); conditions: Compound concentration 1000.0 nM
# [14] = target: 5-hydroxytryptamine receptor 6 (Homo sapiens) (UniProt P50406); conditions: Compound concentration 10.0 uM
# [15] = test system: Receptor-type tyrosine-protein kinase FLT3 (Homo sapiens), P36888 [D835V]; conditions: Compound concentration 1000.0 nM
# [16] = target: Interleukin-1 receptor-associated kinase 4 (Homo sapiens) (UniProt Q9NWZ3); conditions: Compound concentration 1000.0 nM
# [17] = target: MAP/microtubule affinity-regulating kinase 4 (Homo sapiens) (UniProt Q96L34); conditions: Compound concentration 1000.0 nM
# [18] = target: Ribosomal protein S6 kinase alpha-3 (Homo sapiens) (UniProt P51812); conditions: Compound concentration 1000.0 nM
# [19] = target: Ephrin type-A receptor 4 (Homo sapiens) (UniProt P54764); conditions: Compound concentration 1000.0 nM
# [20] = target: Death-associated protein kinase 1 (Homo sapiens) (UniProt P53355); conditions: Compound concentration 1000.0 nM
# [21] = test system: Mast/stem cell growth factor receptor Kit (Homo sapiens), P10721 [V559D,T670I]; conditions: Compound concentration 1000.0 nM
# [22] = target: Misshapen-like kinase 1 (Homo sapiens) (UniProt Q8N4C8); conditions: Compound concentration 1000.0 nM
# [23] = target: Phosphatidylinositol 4-phosphate 5-kinase type-1 alpha (Homo sapiens) (UniProt Q99755); conditions: Compound concentration 1000.0 nM
# [24] = target: Non-receptor tyrosine-protein kinase TNK1 (Homo sapiens) (UniProt Q13470); conditions: Compound concentration 1000.0 nM
# [25] = target: Mitogen-activated protein kinase kinase kinase 15 (Homo sapiens) (UniProt Q6ZN16); conditions: Compound concentration 1000.0 nM
# [26] = target: Ephrin type-B receptor 6 (Homo sapiens) (UniProt O15197); conditions: Compound concentration 1000.0 nM
# [27] = target: Serine/threonine-protein kinase STK11 (Homo sapiens) (UniProt Q15831); conditions: Compound concentration 1000.0 nM
# [28] = target: RAF proto-oncogene serine/threonine-protein kinase (Homo sapiens) (UniProt P04049); conditions: Compound concentration 1000.0 nM
# [29] = target: Homeodomain-interacting protein kinase 4 (Homo sapiens) (UniProt Q8NE63); conditions: Compound concentration 1000.0 nM
# [30] = target: Serine/threonine-protein kinase PRP4 homolog (Homo sapiens) (UniProt Q13523); conditions: Compound concentration 1000.0 nM
# [31] = target: Myotonin-protein kinase (Homo sapiens) (UniProt Q09013); conditions: Compound concentration 1000.0 nM
# [32] = target: Serine/threonine-protein kinase Nek11 (Homo sapiens) (UniProt Q8NG66); conditions: Compound concentration 1000.0 nM
# [33] = target: Ribosomal protein S6 kinase alpha-1 (Homo sapiens) (UniProt Q15418); conditions: Compound concentration 1000.0 nM
# [34] = target: Serine/threonine-protein kinase B-raf (Homo sapiens) (UniProt P15056); conditions: Compound concentration 1000.0 nM
# [35] = target: Mitogen-activated protein kinase 9 (Homo sapiens) (UniProt P45984); conditions: Compound concentration 1000.0 nM
# [36] = target: Serine/threonine-protein kinase PLK3 (Homo sapiens) (UniProt Q9H4B4); conditions: Compound concentration 1000.0 nM
# [37] = target: Homeodomain-interacting protein kinase 1 (Homo sapiens) (UniProt Q86Z02); conditions: Compound concentration 1000.0 nM
# [38] = target: Mitogen-activated protein kinase 12 (Homo sapiens) (UniProt P53778); conditions: Compound concentration 1000.0 nM
# [39] = target: Receptor-interacting serine/threonine-protein kinase 2 (Homo sapiens) (UniProt O43353); conditions: Compound concentration 1000.0 nM
# [40] = test system: Phosphatidylinositol 4,5-bisphosphate 3-kinase catalytic subunit alpha isoform (Homo sapiens), P42336 [H1047Y]; conditions: Compound concentration 1000.0 nM
# [41] = target: Tyrosine-protein kinase ABL1 (Homo sapiens) (UniProt P00519); conditions: Compound concentration 1000.0 nM
# [42] = target: Serine/threonine-protein kinase PAK 5 (Homo sapiens) (UniProt Q9P286); conditions: Compound concentration 1000.0 nM
# [43] = target: ALK tyrosine kinase receptor (Homo sapiens) (UniProt Q9UM73); conditions: Compound concentration 1000.0 nM
# Sequence of 5-hydroxytryptamine receptor 6 (Homo sapiens) (P50406 whole entry): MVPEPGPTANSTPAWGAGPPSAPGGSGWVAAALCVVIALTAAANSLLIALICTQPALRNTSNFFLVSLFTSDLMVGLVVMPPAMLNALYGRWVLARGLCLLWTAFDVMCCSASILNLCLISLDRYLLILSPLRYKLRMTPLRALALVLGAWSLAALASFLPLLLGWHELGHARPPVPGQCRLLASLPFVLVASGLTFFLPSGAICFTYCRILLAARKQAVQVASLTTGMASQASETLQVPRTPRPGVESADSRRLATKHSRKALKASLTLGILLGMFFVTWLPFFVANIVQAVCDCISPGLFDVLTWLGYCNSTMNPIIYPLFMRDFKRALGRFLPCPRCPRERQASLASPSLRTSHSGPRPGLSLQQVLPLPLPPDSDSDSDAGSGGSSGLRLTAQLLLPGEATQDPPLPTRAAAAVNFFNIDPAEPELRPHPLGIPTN
# Sequence of Serine/threonine-protein kinase PRP4 homolog (Homo sapiens) (Q13523 whole entry): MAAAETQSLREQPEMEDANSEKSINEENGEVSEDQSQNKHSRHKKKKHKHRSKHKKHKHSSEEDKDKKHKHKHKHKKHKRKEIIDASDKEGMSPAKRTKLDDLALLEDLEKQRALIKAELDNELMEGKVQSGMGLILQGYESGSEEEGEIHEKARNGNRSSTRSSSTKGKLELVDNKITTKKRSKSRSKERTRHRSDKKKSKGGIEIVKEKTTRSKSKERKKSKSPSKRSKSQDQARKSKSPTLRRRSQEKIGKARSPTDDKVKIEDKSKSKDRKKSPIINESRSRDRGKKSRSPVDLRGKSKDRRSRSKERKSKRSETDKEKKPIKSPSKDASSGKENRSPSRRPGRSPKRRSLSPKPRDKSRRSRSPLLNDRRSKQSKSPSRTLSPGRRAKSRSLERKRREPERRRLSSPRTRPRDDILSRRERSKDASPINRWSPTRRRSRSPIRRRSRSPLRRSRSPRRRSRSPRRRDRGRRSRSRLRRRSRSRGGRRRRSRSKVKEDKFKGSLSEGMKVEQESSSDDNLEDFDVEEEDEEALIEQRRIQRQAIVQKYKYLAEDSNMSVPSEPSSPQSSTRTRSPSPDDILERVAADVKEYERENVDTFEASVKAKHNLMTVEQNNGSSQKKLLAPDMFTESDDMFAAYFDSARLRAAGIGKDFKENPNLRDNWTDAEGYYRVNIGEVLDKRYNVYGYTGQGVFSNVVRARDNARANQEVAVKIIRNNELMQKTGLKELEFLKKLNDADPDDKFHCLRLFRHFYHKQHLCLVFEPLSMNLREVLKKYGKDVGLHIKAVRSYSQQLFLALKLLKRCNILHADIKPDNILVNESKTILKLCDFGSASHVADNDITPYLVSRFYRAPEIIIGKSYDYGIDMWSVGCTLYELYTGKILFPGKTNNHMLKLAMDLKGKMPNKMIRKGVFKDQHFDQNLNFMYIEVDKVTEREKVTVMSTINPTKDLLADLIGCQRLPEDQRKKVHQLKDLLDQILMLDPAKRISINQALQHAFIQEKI
# Sequence of Tyrosine-protein kinase BTK (Homo sapiens) (Q06187 whole entry): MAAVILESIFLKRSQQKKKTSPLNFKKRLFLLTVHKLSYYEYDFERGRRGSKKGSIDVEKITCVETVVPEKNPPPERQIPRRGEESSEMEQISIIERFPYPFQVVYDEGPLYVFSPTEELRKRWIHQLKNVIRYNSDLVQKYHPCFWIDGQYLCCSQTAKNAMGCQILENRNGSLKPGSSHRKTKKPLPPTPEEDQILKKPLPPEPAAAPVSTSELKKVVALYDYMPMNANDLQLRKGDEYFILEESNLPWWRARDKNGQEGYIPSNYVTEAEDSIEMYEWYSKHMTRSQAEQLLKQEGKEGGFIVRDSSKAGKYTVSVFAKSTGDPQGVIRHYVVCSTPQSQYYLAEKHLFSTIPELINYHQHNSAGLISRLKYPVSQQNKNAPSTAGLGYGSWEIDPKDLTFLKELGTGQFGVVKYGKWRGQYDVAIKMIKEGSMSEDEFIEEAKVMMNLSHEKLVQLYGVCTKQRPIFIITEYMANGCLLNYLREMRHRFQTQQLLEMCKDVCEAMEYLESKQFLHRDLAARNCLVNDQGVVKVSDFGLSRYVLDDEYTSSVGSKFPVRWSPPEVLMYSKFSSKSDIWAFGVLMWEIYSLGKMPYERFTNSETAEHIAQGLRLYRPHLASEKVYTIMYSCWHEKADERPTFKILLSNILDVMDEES
# Sequence of Proto-oncogene tyrosine-protein kinase receptor Ret (Homo sapiens), P07949 [V804L] (P07949 whole entry V804L): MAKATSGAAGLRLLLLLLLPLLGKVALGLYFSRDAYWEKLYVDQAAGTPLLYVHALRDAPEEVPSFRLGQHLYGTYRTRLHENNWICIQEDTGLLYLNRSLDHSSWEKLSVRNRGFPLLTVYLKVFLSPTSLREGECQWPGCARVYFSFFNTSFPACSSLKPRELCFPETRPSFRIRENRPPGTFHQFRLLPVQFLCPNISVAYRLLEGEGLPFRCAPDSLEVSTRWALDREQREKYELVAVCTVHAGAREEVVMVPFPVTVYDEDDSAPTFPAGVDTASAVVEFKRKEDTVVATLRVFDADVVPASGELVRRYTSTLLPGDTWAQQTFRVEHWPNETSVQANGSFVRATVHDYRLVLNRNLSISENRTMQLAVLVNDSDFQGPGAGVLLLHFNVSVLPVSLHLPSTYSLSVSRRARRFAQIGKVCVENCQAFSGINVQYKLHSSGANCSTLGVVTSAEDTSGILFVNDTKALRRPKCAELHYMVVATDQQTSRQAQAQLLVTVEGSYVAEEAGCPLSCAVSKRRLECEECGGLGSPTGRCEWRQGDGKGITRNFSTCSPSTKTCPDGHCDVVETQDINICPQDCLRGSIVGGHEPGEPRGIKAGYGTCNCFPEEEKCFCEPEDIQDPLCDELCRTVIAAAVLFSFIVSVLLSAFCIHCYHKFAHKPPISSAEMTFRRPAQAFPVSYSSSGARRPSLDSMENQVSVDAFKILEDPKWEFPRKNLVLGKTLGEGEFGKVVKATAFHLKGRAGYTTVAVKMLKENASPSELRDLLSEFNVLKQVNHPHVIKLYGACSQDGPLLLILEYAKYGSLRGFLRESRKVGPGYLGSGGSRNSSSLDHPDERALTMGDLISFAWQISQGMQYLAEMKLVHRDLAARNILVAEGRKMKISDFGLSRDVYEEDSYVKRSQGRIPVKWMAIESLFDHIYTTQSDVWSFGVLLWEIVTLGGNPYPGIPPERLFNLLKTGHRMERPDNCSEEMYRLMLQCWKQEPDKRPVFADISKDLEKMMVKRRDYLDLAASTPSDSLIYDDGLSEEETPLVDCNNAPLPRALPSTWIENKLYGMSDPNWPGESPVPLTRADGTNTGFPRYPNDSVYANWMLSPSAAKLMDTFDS
# Sequence of Interleukin-1 receptor-associated kinase 4 (Homo sapiens) (Q9NWZ3 whole entry): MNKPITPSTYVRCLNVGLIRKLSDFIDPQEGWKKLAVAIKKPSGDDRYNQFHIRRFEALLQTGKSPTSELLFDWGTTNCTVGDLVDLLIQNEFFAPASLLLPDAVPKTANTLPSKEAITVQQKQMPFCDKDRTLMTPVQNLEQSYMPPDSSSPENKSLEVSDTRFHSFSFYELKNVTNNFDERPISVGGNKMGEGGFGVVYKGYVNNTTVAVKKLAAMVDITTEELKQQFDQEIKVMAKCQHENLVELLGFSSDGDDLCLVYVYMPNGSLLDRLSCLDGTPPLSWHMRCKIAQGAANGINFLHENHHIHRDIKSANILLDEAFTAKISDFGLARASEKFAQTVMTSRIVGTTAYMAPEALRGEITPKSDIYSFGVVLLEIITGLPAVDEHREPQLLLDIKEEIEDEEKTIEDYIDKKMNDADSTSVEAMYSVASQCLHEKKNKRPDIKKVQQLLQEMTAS
# Sequence of Mast/stem cell growth factor receptor Kit (Homo sapiens), P10721 [V559D,T670I] (P10721 whole entry V559D/T670I): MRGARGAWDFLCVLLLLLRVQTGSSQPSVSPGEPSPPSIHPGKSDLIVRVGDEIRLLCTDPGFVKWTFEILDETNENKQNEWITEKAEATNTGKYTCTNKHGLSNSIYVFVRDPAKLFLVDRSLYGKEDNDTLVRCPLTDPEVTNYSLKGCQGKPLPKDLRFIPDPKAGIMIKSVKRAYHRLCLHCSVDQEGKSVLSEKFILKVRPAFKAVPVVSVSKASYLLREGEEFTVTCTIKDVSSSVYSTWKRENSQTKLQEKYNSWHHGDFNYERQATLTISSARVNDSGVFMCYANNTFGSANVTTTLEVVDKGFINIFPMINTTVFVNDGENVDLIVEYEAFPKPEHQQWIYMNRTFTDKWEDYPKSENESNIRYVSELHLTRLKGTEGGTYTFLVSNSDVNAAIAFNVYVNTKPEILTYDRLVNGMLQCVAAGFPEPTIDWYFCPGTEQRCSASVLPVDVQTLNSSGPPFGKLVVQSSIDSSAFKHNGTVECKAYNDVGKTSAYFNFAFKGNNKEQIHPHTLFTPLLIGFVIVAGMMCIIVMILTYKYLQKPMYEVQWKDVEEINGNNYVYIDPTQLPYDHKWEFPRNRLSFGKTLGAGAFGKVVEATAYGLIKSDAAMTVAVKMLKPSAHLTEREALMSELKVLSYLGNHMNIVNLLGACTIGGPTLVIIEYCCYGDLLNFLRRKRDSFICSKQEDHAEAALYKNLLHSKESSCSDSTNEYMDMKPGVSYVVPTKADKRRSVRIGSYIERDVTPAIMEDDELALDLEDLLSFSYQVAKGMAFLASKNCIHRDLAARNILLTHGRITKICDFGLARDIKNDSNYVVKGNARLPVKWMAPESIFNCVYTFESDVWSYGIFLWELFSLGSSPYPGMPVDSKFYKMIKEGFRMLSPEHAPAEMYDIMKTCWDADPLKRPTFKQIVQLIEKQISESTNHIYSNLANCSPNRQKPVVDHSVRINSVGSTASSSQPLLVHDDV
# Sequence of Mitogen-activated protein kinase 12 (Homo sapiens) (P53778 whole entry): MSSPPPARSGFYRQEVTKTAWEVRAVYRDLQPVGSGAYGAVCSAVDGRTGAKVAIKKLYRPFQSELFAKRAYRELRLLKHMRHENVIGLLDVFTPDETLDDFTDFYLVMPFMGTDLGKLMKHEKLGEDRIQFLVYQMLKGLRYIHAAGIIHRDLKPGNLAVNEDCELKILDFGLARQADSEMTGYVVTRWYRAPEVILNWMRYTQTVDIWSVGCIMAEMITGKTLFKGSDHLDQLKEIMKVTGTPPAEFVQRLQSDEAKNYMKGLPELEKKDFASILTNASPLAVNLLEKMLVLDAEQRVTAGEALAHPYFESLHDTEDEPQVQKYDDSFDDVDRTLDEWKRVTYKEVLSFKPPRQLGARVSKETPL
structure (smiles),measurement,setting,value
Cc1c(C(=O)O)cc(-c2ccc(C3CCNCC3)cc2)c2ccc(-c3ccc(C(F)(F)F)cc3)cc12 [PPTN-NC],inhibition,[1],27.8%
same,residual activity,[2],99%
same,residual activity,[3],100%
same,residual activity,[4],100%
same,residual activity,[5],100%
same,residual activity,[6],94%
same,Ki,[7],3.6 µM
same,residual activity,[8],100%
same,residual activity,[9],100%
same,inhibition,[10],10.6%
same,residual activity,[11],100%
same,residual activity,[12],100%
same,residual activity,[13],77%
same,inhibition,[14],13.5%
same,residual activity,[15],100%
same,residual activity,[16],100%
same,residual activity,[17],97%
same,residual activity,[18],80%
same,residual activity,[19],100%
same,residual activity,[20],100%
same,residual activity,[21],100%
same,residual activity,[22],100%
same,residual activity,[23],70%
same,residual activity,[24],100%
same,residual activity,[25],100%
same,residual activity,[26],100%
same,residual activity,[27],94%
same,residual activity,[28],80%
same,residual activity,[29],100%
same,residual activity,[30],100%
same,residual activity,[31],86%
same,residual activity,[32],100%
same,residual activity,[33],100%
same,residual activity,[34],100%
same,residual activity,[35],100%
same,residual activity,[36],100%
same,residual activity,[37],100%
same,residual activity,[38],85%
same,residual activity,[39],100%
same,residual activity,[40],100%
same,residual activity,[41],85%
same,residual activity,[42],98%
same,residual activity,[43],100%
O=C(O)c1cc(-c2ccc(C3CCNCC3)cc2)c2ccc(-c3ccc(C(F)(F)F)cc3)cc2c1 [PPTN],inhibition,[1],38.9%
same,residual activity,[2],100%
same,residual activity,[3],87%
same,residual activity,[4],100%
same,residual activity,[5],99%
same,residual activity,[6],96%
same,Ki,[7],3.23 µM
same,residual activity,[8],100%
same,residual activity,[9],100%
same,inhibition,[10],-3.62%
same,residual activity,[11],100%
same,residual activity,[12],88%
same,residual activity,[13],98%
same,inhibition,[14],5.62%
same,residual activity,[15],100%
same,residual activity,[16],100%
same,residual activity,[17],100%
same,residual activity,[18],80%
same,residual activity,[19],100%
same,residual activity,[20],100%
same,residual activity,[21],100%
same,residual activity,[22],98%
same,residual activity,[23],78%
same,residual activity,[24],100%
same,residual activity,[25],99%
same,residual activity,[26],96%
same,residual activity,[27],100%
same,residual activity,[28],70%
same,residual activity,[29],100%
same,residual activity,[30],100%
same,residual activity,[31],100%
same,residual activity,[32],100%
same,residual activity,[33],100%
same,residual activity,[34],100%
same,residual activity,[35],100%
same,residual activity,[36],100%
same,residual activity,[37],97%
same,residual activity,[38],99%
same,residual activity,[39],100%
same,residual activity,[40],84%
same,residual activity,[41],72%
same,residual activity,[42],100%
same,residual activity,[43],100%

# Reference: ChEMBL document CHEMBL4507292 (2021)
